Values quoted from earlier work in PMC10033663, “Acute pharmacological profile of 2C-B-Fly-NBOMe in male Wistar rats—pharmacokinetics, effects on behaviour and thermoregulation” (Frontiers in Pharmacology, 2023).
Like-named read-outs stand apart in the source and are kept apart here.

Assays:
rats [1] = test system: rats; set-up: method as in Halberstadt and Geyer, 2017; conditions: ref Halberstadt and Geyer, 2017; cited from earlier work
[2] = rat blood serum; 1 mg/kg, peroral administration; ref Baralla et al. (2019); cited from earlier work
[3] = 50 mg/kg s. c., ref Rohanová et al., 2008, cited from earlier work
[4] = set-up: method as in ref Adams and Geyer, 1982; Páleníček et al., 2013; Páleníček et al., 2008; conditions: ref Adams and Geyer, 1982, Páleníček et al., 2013, 2008; cited from earlier work
[5] = set-up: method as in Gatch et al., 2017; Wojtas et al., 2021; conditions: administered i. p.; ref Gatch et al., 2017; Wojtas et al., 2021; cited from earlier work
rats [6] = conditions: 0.5 mg/kg i. p.; female and male rats; ref Miliano et al. (2019); cited from earlier work
mice = test system: mice; set-up: method as in Halberstadt, 2017; conditions: ref Halberstadt, 2017, cited from earlier work; for locomotion: mice
rats [7] = test system: rats; set-up: method as in Miliano et al. (2019); conditions: ref Miliano et al. (2019), cited from earlier work
rats [8] = test system: rats; set-up: method as in Nakamura et al., 2018; conditions: 0.25 intraperitoneally (i. p.), ambient temperature 29°C, ref Nakamura et al., 2018; cited from earlier work
[9] = set-up: method as in ref Šíchová et al., 2022; conditions: 5 mg/kg; individually-housed animals; ref Šíchová et al., 2022; cited from earlier work
[10] = set-up: method as in ref Šíchová et al., 2022; conditions: compared with 2C-B-Fly-NBOMe; ref Šíchová et al., 2022; cited from earlier work
[11] = set-up: method as in ref Šíchová et al., 2022; conditions: ref Šíchová et al., 2022; cited from earlier work
[12] = set-up: method as in ref Šíchová et al., 2022; conditions: 5 mg/kg, ref Šíchová et al., 2022, cited from earlier work

In the case of `COc1cc(CCNCc2ccccc2O)c(OC)cc1C#N` [25CN-NBOH], the PPI (rats [1]) is listed as “tendencies to disrupt PPI”.

In the case of `NCCc1c2c(cc3c1OCC3)OCC2` [2C-FLY, 2-(2,3,6,7-tetrahydrofuro [2,3-f][1]benzofuran-4-yl)ethanamine], the “time of peak concentration” value [2] is listed as 60 min.

In the case of `COc1cc(CCN)c(OC)cc1Br` [2C-B, 4-Bromo-2,5-dimethoxyphenethylamine], the “time for which presence was detectable” value ([3]; all collected tissues) is listed as “up to 5 h”, the “time of peak concentration” value ([3]; blood serum) is listed as no more than 30 min and the “time of peak concentration” value ([3]; brain, liver, and lung tissue) is listed as no more than 60 min. For the same compound, the “biphasic effect (low and high doses, temporal onsets)” value [4] was “biphasic effect”.

In the case of `CCN(CC)C(=O)[C@@H]1C=C2c3cccc4[nH]cc(c34)C[C@H]2N(C)C1` [LSD, lysergic acid diethylamide], the “biphasic effect (low and high doses, temporal onsets)” value [4] is given as “biphasic effect”.

For `CC(N)Cc1c2c(cc3c1OCC3)OCC2` (stereo not drawn) [FLY, 1-(2,3,6,7-tetra-hydrofuro [2,3-f][1]benzofuran-4-yl)propan-2-amine], the “time of peak concentration” value [2] is listed as 30 min.

For `COc1cc(CCNCc2ccccc2OC)c(OC)cc1I` [25I-NBOMe, 2-(4-iodo-2,5-dimethoxyphenyl)-N-[(2-methoxyphenyl)methyl]ethanamine], the locomotor activity [5] is listed as “dose-dependent decrease in locomotor activity”, the body temperature (rats [6]) is listed as “induced hyperthermia within 35–65 min in female rats, but not in males” and the locomotion (mice; 0.1 mg/kg s. c., 60 min temporal onset) is listed as “significant hyperlocomotion”. For the same compound, the locomotion (mice; 3 mg/kg s. c.) was “hypolocomotion”, the “biphasic effect on locomotion by route” value (mice; s. c. versus i. p.) was “induced a biphasic effect after s. c. application, but interestingly not after i. p. injection” and the ASR (rats [7]; highest dose (1 mg/kg i. p.)) was “significant decrease of ASR”. For the same compound, the PPI (rats [7]) was “dose-dependent inhibition of PPI”.

In the case of `COc1cc(CCNCc2ccccc2OC)c(OC)cc1Br` [25B-NBOMe], the locomotor activity [5] is given as “dose-dependent decrease in locomotor activity” and the body temperature (rats [8]) is given as “hyperthermia, but only in higher ambient temperature”.

In the case of `COc1cc(CCNCc2ccccc2OC)c(OC)cc1C#N` [25CN-NBOMe], the body temperature [9] is given as “significant hypothermic effect”, the locomotion [10] is given as “similar, yet less pronounced decrease in locomotion” and the PPI [11] is given as “affected PPI only in the highest dose of 5 mg/kg in the 15 min onset”. The half-life ([12]; blood serum) was 1.88 h and the half-life ([12]; brain tissue) was 2.28 h.

For `COc1cc(CCNCc2ccccc2OC)c(OC)cc1Cl` [25C-NBOMe], the locomotor activity [5] is given as “dose-dependent decrease in locomotor activity”.

For `COc1cc(CCN)cc(OC)c1OC` [mescaline], the “biphasic effect (low and high doses, temporal onsets)” value [4] is listed as “biphasic effect”.
